Test [1] deals with Human immunodeficiency virus type 1 reverse transcriptase (Human immunodeficiency virus 1, UniProt Q72547). Nature of the test: Inhibition of purified recombinant HIV-1 reverse transcriptase.
A short description of test [2]: Inhibitory activity of compound on p24 production in peripheral blood mononuclear cells infected with HIV strain RT-MDR. The class given is functional. The settings on record: Homo sapiens.
The nature of test [3]: Inhibitory activity of compound on p24 production in peripheral blood mononuclear cells infected with HIV strain HTLV IIIB wild type. It is filed as functional. Particulars: Homo sapiens.
The nature of test [4]: Inhibitory activity of compound on p24 production in peripheral blood mononuclear cells infected with HIV strain A17. It is filed as functional. Particulars: Homo sapiens.
A short description of test [5]: Inhibitory activity of compound on p24 production in peripheral blood mononuclear cells infected with HIV strain A17 variant. The class given is functional. Particulars: Homo sapiens.
Test [6] can be described thus: Inhibitory activity of compound won p24 production in peripheral blood mononuclear cells infected with HIV strain HTLV IIIB wild type. Particulars: Homo sapiens. The class given is functional.

SMILES strings stand for the structures.

Usually IC50 stands for the concentration that inhibits the measured activity by half. `COc1ccc(OC)c(CCNC(=S)Nc2ccc(Br)cn2)c1`: the half-maximal inhibitory concentration (IC50) is 100 nM in test [1]; 5 nM in test [2]; less than 1 nM in test [3]; 100 nM in test [4]; 11000 nM in test [5].

As for `Fc1ccc(CCNC(=S)Nc2ccc(Br)cn2)cc1`, the IC50 in test [1] is 6400 nM.

With `Fc1ccccc1CCNC(=S)Nc1ccc(Br)cn1`, the IC50 in test [1] was 600 nM; in test [2], 5 nM; in test [3] it was less than 10 nM; in test [4], 200 nM; in test [5] it was 41000 nM.

Consider `S=C(NCCC1=CCCCC1)Nc1ccc(Cl)cn1`, for which the half-inhibitory concentration (IC50) in test [1] came out at 3700 nM; in test [3], 3 nM.

`Fc1cccc(CCNC(=S)Nc2ccc(Br)cn2)c1`: the IC50 was 700 nM in test [1], 20 nM in test [2] and less than 1 nM in test [3].

For `S=C(NCCc1ccccc1Cl)Nc1ccc(Br)cn1`, the 50% inhibitory concentration (IC50) in test [1] was 700 nM; in test [2], 4 nM; in test [3] it was less than 10 nM.

As for `CC(C)Nc1cccnc1N1CCN(C(=O)c2cc3cc(NS(C)(=O)=O)ccc3[nH]2)CC1` [DELAVIRDINE], the IC50 is 400 nM in test [2], 9 nM in test [3], 50000 nM in test [4] and more than 100000 nM in test [5].

Take `CCOCn1c(Cc2ccccc2)c(C(C)C)c(=O)[nH]c1=O` [EMIVIRINE]: the IC50 in test [1] amounted to 800 nM; in test [2] it was 300 nM.

With `Cc1ccnc2c1NC(=O)c1cccnc1N2C1CC1` [NEVIRAPINE], the IC50 in test [2] was 5000 nM; in test [4] it was more than 100000 nM; in test [5] it was more than 100000 nM; in test [6], 34 nM.

With `S=C(NCCc1ccccn1)Nc1ccc(Br)cn1` [TROVIRDINE], the half-maximal inhibitory concentration (IC50) amounted to 20 nM in test [2] and 7 nM in test [3].

On to `Cc1cn([C@H]2C[C@H](N=[N+]=[N-])[C@@H](CO)O2)c(=O)[nH]c1=O` [ZIDOVUDINE], for which the IC50 was determined as 150 nM in test [2], 4 nM in test [3], 6 nM in test [4] and 4 nM in test [5].
